Experimental data from patent US8501442B2, “Determination of 5-ASA efficacy in CRC prevention and/or treatment by gene expression analysis” (Sofar SpA, priority 2009, dated 2013).

Experiments:
Type in all cases: cell-based
CaCo2 cells = experiment: Proliferation of CaCo2 cells under 5-ASA treatment (preliminary experiments)
[1] = tested on: μ-protocadherin/β-catenin protein complex in CaCo2 cells; experiment: Coimmunoprecipitation analysis of μ-protocadherin/β-catenin protein interaction in CaCo2 cells; settings: lysates of CaCo2 cells, 20 mM 5-ASA for 96 h
Method: The hypothesis arising from our data would directly imply that μ-protocadherin, as other proteins belonging to the cadherin superfamily, is able to bind β-catenin on the plasmatic membrane. To verify this interaction we performed co-immunoprecipitation experiments in which β-catenin was immunoprecipitated from lysates of CaCo2 cells treated with 20 mM 5-ASA for 96 h using a specific antibody and the immunoprecipitate was subsequently analyzed by Western blot carried out with a distinct antibody able to detect μ-protocadherin. […] FIG. 4. Coimmunoprecipitation analysis of μ-protocadherin/β-catenin protein interaction. […] Western blot analysis of μ-protocadherin expression was performed in cell lysates of control untreated and 5-ASA treated CaCo2 cells (Input, left panel), immunoprecipitates obtained by the same cells using normal control IgG (middle panel) and immunoprecipitates obtained by the same cells using an anti-β-catenin antibody (right panel). IP, immunoprecipitation; WB, Western blot; Ab antibody.

[2] = tested on: β-catenin signalling pathway genes in HT29 colon adenocarcinoma cell line; experiment: QRT-PCR analysis of β-catenin signalling pathway genes in HT29 cells; settings: 20 mM 5-ASA, 96 h
Method: These findings were also confirmed in another colon adenocarcinoma cell line, named HT29, under the same experimental conditions.
FIG. 5. Biological effects determined by treatment with 5-ASA on the HT29 colon adenocarcinoma cell line. The mRNA expression variations of gene belonging to the β-catenin signalling pathway were analyzed in HT29 cells using the QRT-PCR reaction under the experimental conditions described in Results and in FIG. 1.
Total RNA was extracted from cell suspensions and frozen tissues by means of the Qiagen total RNA purification kit as recommended by the manufacturer (Qiagen, Valencia, Calif.). RNA integrity and concentration were verified using the Bio-Analyzer technique (Applied Biosystem, Foster City, Calif.). 100 ng of total RNA were reverse transcribed using the High Capacity cDNA Archive Kit (Applied Biosystems) according to the manufacturer's instructions. QRT-PCR was performed with an ABI PRISM 7900 sequence detection system (Applied Biosystems) to quantify the relative levels of mRNA in the samples. […] Evaluation of QRT-PCR signals was performed using the ΔΔCt relative quantitation method. […] The values obtained were expressed in terms of relative quantity (RQ) of mRNA level variation.

[3] = tested on: β-catenin signalling pathway genes in CaCo2 colon adenocarcinoma cells; experiment: QRT-PCR analysis of genes regulating the β-catenin signalling pathway in CaCo2 cells; settings: 20 mM 5-ASA
Method: (§1) To investigate the molecular mechanisms underlying this effect we performed a microarray analysis, using the Affimetrix methodology, in order to assess the transcriptome changes determined on CaCo2 cells by treatment with 20 mM 5-ASA for 96 h. […] This gene codes for a member of the cadherin superfamily and, based on previous reports by other authors, appeared as a putative inhibitor of the β-catenin signalling pathway, i.e. a cell proliferation pathway mediated by the activity of the β-catenin transcription factor^16,17. The relevance of this finding resides in the observation that the β-catenin signalling pathway is constitutively activated in CRC. […] Up-regulation of mRNA expression resulted to be 12-fold for μ-protocadherin, 16-fold for p21^waf-1, 4 to 6-fold for KLF4 and CEBPα and 2 to 3-fold Axin 1 and ICAT. […] The up-regulation of these genes appeared also more pronounced at the end of stimulation (96 h). mRNA expression of E-cadherin and β-catenin appeared, conversely, unaffected (FIG. 1).
FIG. 1. QRT-PCR analysis of genes belonging to the β-catenin signalling pathway in CaCo2 cells treated with 5-ASA. Cells under the experimental conditions described in Results were analyzed by QRT-PCR to estimate the mRNA expression of genes belonging to the β-catenin signalling pathway, all indicated on y-axis. The effect determined by 5-ASA treatment on the mRNA expression of KLF4 and CEBPα onco-suppressor genes is also shown.
Total RNA was extracted from cell suspensions and frozen tissues by means of the Qiagen total RNA purification kit as recommended by the manufacturer (Qiagen, Valencia, Calif.). RNA integrity and concentration were verified using the Bio-Analyzer technique (Applied Biosystem, Foster City, Calif.). 100 ng of total RNA were reverse transcribed using the High Capacity cDNA Archive Kit (Applied Biosystems) according to the manufacturer's instructions. QRT-PCR was performed with an ABI PRISM 7900 sequence detection system (Applied Biosystems) to quantify the relative levels of mRNA in the samples. Primers and probes for mRNA amplification of μ-protocadherin, E-cadherin, β-catenin, Axin-1, Inhibitor of β-Catenin and TCF-4 (ICAT), p21^waf-1, KLF4, CEBPα, and glyceraldehyde-3-phosphate dehydrogenase (GAPDH) were designed by Applied Biosystems. Each cDNA sample was run in triplicate in 50 μl reaction volume using Taqman Universal PCR Master Mix (Applied Biosystems). Thermal cycling was started with an initial denaturation at 50° C. for 2 min and 95° C. for 10 min, followed by 40 thermal cycles of 15 sec at 95° C. and 1 min at 60° C. Evaluation of QRT-PCR signals was performed using the ΔΔCt relative quantitation method. […] The values obtained were expressed in terms of relative quantity (RQ) of mRNA level variation.

[4] = tested on: μ-protocadherin protein in CaCo2 cells; experiment: Time course Western blot of μ-protocadherin protein expression in CaCo2 cells; settings: 20 mM 5-ASA for up to 96 h, 24 h intervals
Method: To confirm μ-protocadherin induction we performed a time course Western blot analysis on CaCo2 cells undergoing exposure to 20 mM 5-ASA for up to 96 h. […] FIG. 2. Results of a time course Western blot analysis evaluating the expression of μ-protocadherin protein in CaCo2 cells treated with 5-ASA. This analysis was performed on cytoplasmic extracts of studied cells, at 24 h intervals following treatment with 5-ASA. Analyzed cell samples are indicated on the top. Normalization of the protein amount loaded in each lane was achieved using a pan-actin antibody able to detect either cytoplasmic or nuclear actin.

[5] = tested on: β-catenin protein in CaCo2 cells; experiment: Immunofluorescence assay of sub-cellular distribution of β-catenin in CaCo2 cells; settings: 20 mM 5-ASA, after 96 h of culture
Method: Due to the particular regulation mechanisms controlling the β-catenin signalling pathway, levels of β-catenin protein observed in the different subcellular compartments represent reliable indicators of the extent of its activation. Based on this premise we performed an immunofluorescence assay to assess the sub-cellular distribution of β-catenin protein in CaCo2 cells undergoing treatment with 20 mM 5-ASA. […] FIG. 3. Immunofluorescence analysis of β-catenin protein on CaCo2 cells exposed to 5-ASA treatment. Cells were stimulated with 5-ASA as explained in Results and subsequently stained with an anti-β-catenin primary antibody and a FITC conjugated secondary antibody (green fluorescence). Untreated control cells (CONT.) were also analyzed. Nuclei were counterstained with DAPI (blue fluorescence). Merge images, of the two analyzed fluorescence signals, are also shown.

[6] = tested on: onco-suppressor genes in CaCo2 cells; experiment: Affimetrix microarray analysis of transcriptome changes in CaCo2 cells; settings: 20 mM 5-ASA for 96 h
Method: as §1

[7] = 48 and 96 h (more pronounced at 96 h)

## Nc1ccc(O)c(C(=O)O)c1 [5-ASA, 5 aminosalicylic acid]
CaCo2 cells
  proliferation activity of CaCo2 cells: inhibits the proliferation activity
[1]
  μ-protocadherin bands (93 and 110 kDa) in β-catenin immunoprecipitate: interacting with β-catenin
[2]
  induction of p21^waf-1 mRNA expression: 5 fold
  induction of μ-protocadherin mRNA expression: 3 fold
[3]; 48 and 96 h
  mRNA expression of E-cadherin: unaffected
  mRNA expression of β-catenin: unaffected
[3]; [7]
  up-regulation of p21^waf-1 mRNA expression: 16 fold
  up-regulation of μ-protocadherin mRNA expression: 12 fold
[4]
  μ-protocadherin protein expression in cytoplasmic extract (Western blot): gradually but remarkably induced
[5]
  sub-cellular localization of β-catenin signal: almost exclusively localized in the plasmatic membrane
[6]
  expression of onco-suppressor genes (μ-protocadherin, KLF4, CEBPα) by microarray: up-regulated expression
